Experimental data: patent US20070196514A1, “Prostate cancer treatment with glycogen synthase kinase-3beta inhibitors” (priority 2006, published 2007)

Key:
PC-3 cells [1] = test: trypan blue viable cell counting; format: cell-based, human
Procedure: For cell counting assay, cells were seeded at the density of 5×10^4 cells in 12-well plates in duplicates and allowed for attachment overnight. Cells were harvested daily for three days and the number of viable cells was counted using a hemocytometer after staining in trypan blue solution (Liao 2003).
First, the effect of LiCl on cell growth was investigated. AR-positive, androgen-dependent LNCaP cells or AR-null PC-3 cells were seeded in a 12-well plate overnight and then treated with or without LiCl in different doses.

PC-3 xenografts = test: mouse xenograft model, protocol B (palpable tumors), with in vivo BrdU labeling and TUNEL; set-up: species or system nude mice
Procedure: All animal studies were conducted under an approved Institutional Animal Care and Use Committee protocol. Single cell suspensions (2×10^6 cells in 0.1 ml of RPMI1640 medium plus 10% FBS) were inoculated subcutaneously (s.c.) into the rear flanks (two sites/mouse) of 6 to 7 weeks old male nude mice (Charles River, Wilmington, Mass.). For protocol A, mice were randomly divided into two groups (5 animals each). On next day after inoculation, one group of animals received i.p. injection of LiCl at a daily dose of 2 mg/kg body weight. LiCl was dissolved in PBS. The control groups of animals received PBS alone in the same volume. Xenograft development and growth were monitored for 8 weeks. The tumor dimensions were measured twice a week. The tumor volume was calculated by the formula of L×W×H×0.5236 (Miyake 2001). At the end of treatment, xenograft tumors were extirpated, and the final tumor size and weight, as well as animal weight were measured. For protocol B, treatment began until tumor became palpable or 50 mm^3 in size, and LiCl or PBS was injected (5 animals each group) as above for a two-week course. Tumor size and weight were measured at the end of treatment. For BrdU in vivo labeling, the animals were injected i.p. with 0.5 ml of a 10-mM BrdU solution (Invitrogen) 2 hours before sacrifice. For experiments involving LNCaP-BclxL SB216763 subline cells (Liao 2005) were inoculated as above, and SB216763 treatment was started two weeks later when palpable xenografts were established. […] Tumor growth was monitored as discussed herein. […]
In protocol B, animals were treated with LiCl at 2 mg/kg for a two-week course when PC-3 xenografts were palpable or about […] in size. Tumor weight was measured at the endpoint of treatment and was compared between LiCl-treated and PBS control groups.
Next, the DNA synthesis associated with LiCl-induced tumor suppression in vivo was also investigated. DNA synthesis was measured by an in vivo BrdU incorporation assay. Meanwhile, apoptotic events, if any, were detected using TUNEL assay. […]

HEK293 cells = test: Affymetrix cDNA microarray for LiCl-induced changes; format: cell-based, human; settings: LiCl treatment, data not shown
Procedure: Androgen-insensitive C4-2 cells and HEK293 cells were used for cDNA-based microarray analysis. After serum starvation for 24 hours, cells were left untreated or treated with LiCl (10 mM) in serum free media for 30 minutes whereas the control cells received PBS in the same media. Then 10% FBS was brought back to both control and LiCl pre-treated cells and incubated for another 6 hours. At the end of treatment, total cellular RNAs were extracted using Trizol-based protocol as described (Liao 2005).
Genechip® arrays (Affymetrix Inc, Santa Clara, Calif.) used herein contain almost 45,000 probe sets representing more than 39,000 transcripts derived from approximately 33,000 well substantial human genes. The in vitro-transcription labeling is conducted using the EnzoBio array high yield RNA transcript labeling kit (Affymetrix). Ten micrograms of total RNAs were used for the first strand cDNA synthesis using the SuperscriptChoice system (Invitrogen).
Genechips were hybridized for 16 hours at 45° C. and 60 rpm in Genechip hybridization oven Model 640. After washing the Genechip, the signal intensity was detected using the Agilent Gene Array scanner.
The most dramatic changes were down-regulation of cdc6, cdc25C, cyclins A and E, as well as up-regulation of CDK inhibitor p21^CIP1. […]

PC-3 cells [2] = test: clonogenic assay; format: cell-based, human; settings: LiCl 10 mM, 14 days
Procedure: For clonogenic assays, 1.0×10^3 cells were seeded in a 35-mm dish and cultured in a medium containing LiCl at the indicated doses. The cultures were monitored daily for colony formation. On day 14, the cultures were washed with phosphate-buffered saline (“PBS”), fixed, and stained as described previously (Liao 2005). The colonies were counted and photographed under an inverted microscope.
Next, the clonogenic assay was used to test the effect of LiCl on cell colony formation. The clonogenic survival fractions of the cells cultured in the presence or absence of increasing concentration of LiCl were measured in two cell lines, androgen refractory PC-3 (data shown) and androgen-responsive LNCaP (data not shown).

LNCaP cells = test: cell cycle analysis by flow cytometry (PI); format: cell-based, human; settings: serum-starved 24 hours then full media with LiCl up to 24 hours
Procedure: For cell cycle analysis, serum-starved cells were left untreated or treated with different inhibitors for various time periods as indicated in the figures. After trypsinization, the cells were fixed and stained with propidium iodide (“PI”). Cell cycle distribution of PI-labeled cells was analyzed on a fluorescence activated cell sorter (Model EPICS XL-MCL, Beckman-Coulter Co., Fullerton, Calif.) as described previously (Miyake 2001).
LNCaP cells were first serum-starved for 24 hours, and were then released by returning them to full culture media in the presence or absence of LiCl for up to 24 hours. Cell cycle distribution was analyzed by flow cytometry (“FCM”). […] When serum was added back in the culture (the control), cells re-entered into cell cycle.

[Cl-].[Li+] [LiCl, Lithium chloride]
inhibition of cell growth (viable cell count) (PC-3 cells [1]; LiCl 10 mM): significantly inhibited | mean doubling-time (PC-3 cells [1]; LiCl 10 mM (no treatment 21.5 hours)): 30.2 h | inhibition of cell growth (viable cell count) (PC-3 cells [1]; LiCl at a dose of less than 3 mM, up to three days): no obvious inhibition | TUNEL staining (apoptotic events) in xenografts, LiCl vs PBS (PC-3 xenografts; LiCl 2 mg/kg): did not show any difference | BrdU labeling in xenografts vs PBS control (PC-3 xenografts; in vivo BrdU incorporation, BrdU injected two hours before sacrifice): significantly reduced | tumor weight vs PBS control (PC-3 xenografts; protocol B, LiCl 2 mg/kg, two-week course on palpable xenografts): significantly reduced | alterations of cell cycle genes (microarray) (HEK293 cells): not observed | clonogenic surviving fractions (PC-3 cells [2]): significantly suppressed | portion of S-phase cells (LNCaP cells): dramatically increased
